ChEMBL document CHEMBL4483862, “Open-source discovery of chemical leads for next-generation chemoprotective antimalarials” (2018)
pIC50: −log10 of the molar value.

System: Plasmodium berghei
Assay: Luciferase/luciferin-expressing antifolate-resistant parasites were used to infect a culture of HepG2 cells that were pre-incubated with compounds. Infected hepatocytes emit light due to the luciferase reaction. Assay results are presented as the percent inhibition of light emission compared to control. […]
Assay type: functional
Settings: sporozoite; for IC90: read-out: LUCIFERASE INFECTION ASSAY - IC90

| SMILES | IC90 [µM] | further results |
| --- | --- | --- |
| O=c1c(Cl)c(Cl)cnn1Cc1nnc(-c2ccc(Cl)cc2)o1 | > 10 | pIC50 (FFLUC_HILL_SLOPE 3.65, FFLUC_R_SQUARED 0.9, HEPG2TOX_HILL_SLOPE 4.48, HEPG2TOX_R_SQUARED 0.522, PBLUC_HILL_SLOPE 7.32, PBLUC_R_SQUARED 0.182, read-out: LUCIFERASE INFECTION ASSAY - IC50): 5.13 |
| CCCS(=O)(=O)c1cnc(C2COc3ccccc3O2)nc1N (stereo not given) | 1.07 | pIC50 (FFLUC_HILL_SLOPE 3.81, FFLUC_R_SQUARED 0.729, PBLUC_HILL_SLOPE 0.615, PBLUC_R_SQUARED 0.774, read-out: LUCIFERASE INFECTION ASSAY - IC50): 7.52 |
| COc1ccc(CN2C(=O)c3ccccc3C(/C=N\OCc3ccc(F)cc3)C2=O)cc1 (stereo not given) | > 7.63 | pIC50 (FFLUC_HILL_SLOPE 3.53, FFLUC_R_SQUARED 0.589, read-out: LUCIFERASE INFECTION ASSAY - IC50): < 5.12 |
| COC(=O)c1ccc(CSc2nnc(NC(=O)c3ccccc3[N+](=O)[O-])s2)cc1 | 0.0537 | pIC50 (FFLUC_HILL_SLOPE 3.72, FFLUC_R_SQUARED 0.492, PBLUC_HILL_SLOPE 2.08, PBLUC_R_SQUARED 0.667, read-out: LUCIFERASE INFECTION ASSAY - IC50): 7.73 |
| Cc1cc(-n2c(C)cc(C(=O)Cn3ncc(Cl)c(Cl)c3=O)c2C)ccc1Br | 5.84 | pIC50 (FFLUC_HILL_SLOPE 3.61, FFLUC_R_SQUARED 0.511, HEPG2TOX_HILL_SLOPE 4.93, HEPG2TOX_R_SQUARED 0.864, PBLUC_HILL_SLOPE 65.8, PBLUC_R_SQUARED 0.0361, read-out: LUCIFERASE INFECTION ASSAY - IC50): 5.25 |
| COC(=O)c1c(NC(=O)c2ccoc2)c2cc(NCC3CC=CCC3)cnc2n1CC(C)C (stereo not given) | > 7.32 | pIC50 (FFLUC_HILL_SLOPE 3.67, FFLUC_R_SQUARED 0.106, read-out: LUCIFERASE INFECTION ASSAY - IC50): < 5.14 |
| Cc1cc(C2=NNC(=CN3CCc4sccc4C3c3cccs3)O2)c(C)o1 (stereo not given) | > 10 | pIC50 (FFLUC_HILL_SLOPE 3.77, FFLUC_R_SQUARED 0.256, read-out: LUCIFERASE INFECTION ASSAY - IC50): < 5.00 |
| CNC(=O)c1ccc(CN(C2CC2)S(=O)(=O)c2cc([N+](=O)[O-])cc(C)c2C)cc1 | > 10 | pIC50 (FFLUC_HILL_SLOPE 3.59, FFLUC_R_SQUARED 0.192, PBLUC_HILL_SLOPE 1.6, PBLUC_R_SQUARED 0.527, read-out: LUCIFERASE INFECTION ASSAY - IC50): 5.30 |
| Cc1cc(C)c(N2C(=O)C=CC2=O)c(C)c1 | 13.1 | pIC50 (FFLUC_HILL_SLOPE 3.47, FFLUC_R_SQUARED 0.6, PBLUC_HILL_SLOPE 4.24, PBLUC_R_SQUARED 0.739, read-out: LUCIFERASE INFECTION ASSAY - IC50): 5.11 |
| O=C(Nc1ccc(Oc2ccc([N+](=O)[O-])c3cnccc23)cc1)c1ccccc1 | > 10 | pIC50 (FFLUC_HILL_SLOPE 3.45, FFLUC_R_SQUARED 0.514, PBLUC_HILL_SLOPE 3.38, PBLUC_R_SQUARED 0.0773, read-out: LUCIFERASE INFECTION ASSAY - IC50): 5.13 |
| Cc1ccc(C(=O)NCc2nsc(=N/C(=N\c3ccccc3)c3ccccc3)n2Cc2ccccc2)cc1 | > 10 | pIC50 (FFLUC_HILL_SLOPE 3.57, FFLUC_R_SQUARED 0.485, HEPG2TOX_HILL_SLOPE 6.57, HEPG2TOX_R_SQUARED 0.579, PBLUC_HILL_SLOPE 15.6, PBLUC_R_SQUARED 0.234, read-out: LUCIFERASE INFECTION ASSAY - IC50): 5.06 |
| CN(CC(=O)Nc1nc(C23CC4CC(CC(C4)C2)C3)cs1)S(=O)(=O)c1cccs1 | 3.45 | pIC50 (FFLUC_HILL_SLOPE 3.68, FFLUC_R_SQUARED 0.43, PBLUC_HILL_SLOPE 112, PBLUC_R_SQUARED 0.327, read-out: LUCIFERASE INFECTION ASSAY - IC50): 5.47 |
| Cc1ccc2c(c1)/C(=N\NC(=O)c1nc(Cl)c(Cl)c(N)c1Cl)C(=O)N2 | > 10 | pIC50 (FFLUC_HILL_SLOPE 3.8, FFLUC_R_SQUARED 0.785, read-out: LUCIFERASE INFECTION ASSAY - IC50): < 5.00 |
| Cc1ccc(-c2csc(NC(=O)C3CCN(c4ncnc5sc(C)c(C)c45)CC3)n2)cc1 | 1.74 | pIC50 (FFLUC_HILL_SLOPE 3.71, FFLUC_R_SQUARED 0.648, HEPG2TOX_HILL_SLOPE 2.17, HEPG2TOX_R_SQUARED 0.62, PBLUC_HILL_SLOPE 8.52, PBLUC_R_SQUARED 0.61, read-out: LUCIFERASE INFECTION ASSAY - IC50): 5.87 |
| Cc1cccc(Cn2nc(C(C)(C)C)cc2C(=O)Nc2ccc(C(C)(C)C)cc2)c1 | > 8.18 | pIC50 (FFLUC_HILL_SLOPE 3.48, FFLUC_R_SQUARED 0.696, read-out: LUCIFERASE INFECTION ASSAY - IC50): < 5.09 |
| O=C1COc2ccc(-c3cs/c(=N\CCc4ccccc4)n3/N=C/c3ccc4ncccc4c3)cc2N1 | > 10 | pIC50 (FFLUC_HILL_SLOPE 3.55, FFLUC_R_SQUARED 0.719, HEPG2TOX_HILL_SLOPE 3.57, HEPG2TOX_R_SQUARED 0.945, read-out: LUCIFERASE INFECTION ASSAY - IC50): < 5.00 |
| COCCNc1ccnc2c(-c3ccccc3Oc3ccccc3)cnn12 | > 9.16 | pIC50 (FFLUC_HILL_SLOPE 3.47, FFLUC_R_SQUARED 0.0365, PBLUC_HILL_SLOPE 0.975, PBLUC_R_SQUARED 0.706, read-out: LUCIFERASE INFECTION ASSAY - IC50): 5.41 |
| CCOc1ccc(NC(=S)N/N=C2/C(=O)Nc3c(Cl)cc(Cl)cc32)cc1 | 1.16 | pIC50 (FFLUC_HILL_SLOPE 3.63, FFLUC_R_SQUARED 0.721, HEPG2TOX_HILL_SLOPE 1.01, HEPG2TOX_R_SQUARED 0.763, PBLUC_HILL_SLOPE 15.5, PBLUC_R_SQUARED 0.598, read-out: LUCIFERASE INFECTION ASSAY - IC50): 6.00 |
| Oc1c2n(c(=S)n1-c1ccc(Cl)cc1)CCS2 | > 11.6 | pIC50 (FFLUC_HILL_SLOPE 3.58, FFLUC_R_SQUARED 0.45, PBLUC_HILL_SLOPE 7.55, PBLUC_R_SQUARED 0.0946, read-out: LUCIFERASE INFECTION ASSAY - IC50): 4.98 |
| O=C(c1oc2ccccc2c1CSc1ccc(Cl)cc1)N1CCCS/C1=N\c1ccccc1 | > 10 | pIC50 (FFLUC_HILL_SLOPE 3.49, FFLUC_R_SQUARED 0.279, read-out: LUCIFERASE INFECTION ASSAY - IC50): < 5.00 |
| Cc1c(-c2ccccc2)oc2c(C(=O)NCc3ccc(Cn4cccn4)cc3)cccc2c1=O | > 10 | pIC50 (FFLUC_HILL_SLOPE 3.81, FFLUC_R_SQUARED 0.0734, PBLUC_HILL_SLOPE 3.95, PBLUC_R_SQUARED 0.349, read-out: LUCIFERASE INFECTION ASSAY - IC50): 5.11 |
| Cc1ccc2oc(-c3ccc(C(C)(C)C)cc3)nc2c1 | 5.53 | pIC50 (FFLUC_HILL_SLOPE 3.61, FFLUC_R_SQUARED 0.123, HEPG2TOX_HILL_SLOPE 7.09, HEPG2TOX_R_SQUARED 0.0328, PBLUC_HILL_SLOPE 0.728, PBLUC_R_SQUARED 0.843, read-out: LUCIFERASE INFECTION ASSAY - IC50): 6.57 |
| CSc1ccccc1N1C(=O)C=CC1=O | 10.8 | pIC50 (FFLUC_HILL_SLOPE 3.57, FFLUC_R_SQUARED 0.584, HEPG2TOX_HILL_SLOPE 8.7, HEPG2TOX_R_SQUARED 0.127, PBLUC_HILL_SLOPE 6.46, PBLUC_R_SQUARED 0.572, read-out: LUCIFERASE INFECTION ASSAY - IC50): 5.11 |
| CCCn1c(SCC(=O)Nc2cc(S(=O)(=O)N(CC)c3ccccc3)ccc2Cl)nc2ccccc2c1=O | > 10 | pIC50 (FFLUC_HILL_SLOPE 3.64, FFLUC_R_SQUARED 0.239, PBLUC_HILL_SLOPE 6.57, PBLUC_R_SQUARED 0.539, read-out: LUCIFERASE INFECTION ASSAY - IC50): 5.07 |
| CC(C)N1C(=O)/C(=N\NC(=S)NC2CCCCC2)c2ccccc21 | > 10 | pIC50 (FFLUC_HILL_SLOPE 3.74, FFLUC_R_SQUARED 0.413, HEPG2TOX_HILL_SLOPE 6.6, HEPG2TOX_R_SQUARED 0.125, read-out: LUCIFERASE INFECTION ASSAY - IC50): < 5.00 |
| O=C(CNc1cc(C(F)(F)F)ccc1Oc1ccc(Br)cc1)NCCC1=CCCCC1 | > 10 | pIC50 (FFLUC_HILL_SLOPE 3.47, FFLUC_R_SQUARED 0.173, PBLUC_HILL_SLOPE 15.8, PBLUC_R_SQUARED 0.057, read-out: LUCIFERASE INFECTION ASSAY - IC50): 5.01 |
| Cc1cc(C)c(C)c(S(=O)(=O)N2CCC(C(=O)Nc3cc(S(=O)(=O)Nc4ccc(Cl)cc4)ccc3N3CCOCC3)CC2)c1C | 3.69 | pIC50 (FFLUC_HILL_SLOPE 3.74, FFLUC_R_SQUARED 0.802, PBLUC_HILL_SLOPE 15.7, PBLUC_R_SQUARED 0.403, read-out: LUCIFERASE INFECTION ASSAY - IC50): 5.49 |
| CCN(CC)S(=O)(=O)c1cc([N+](=O)[O-])ccc1NN=CC1C(=O)N(c2ccc(C)cc2)C(=O)c2ccccc21 (stereo not given) | > 10 | pIC50 (FFLUC_HILL_SLOPE 3.56, FFLUC_R_SQUARED 0.6, HEPG2TOX_HILL_SLOPE 2.69, HEPG2TOX_R_SQUARED 0.936, PBLUC_HILL_SLOPE 15.5, PBLUC_R_SQUARED 0.0701, read-out: LUCIFERASE INFECTION ASSAY - IC50): 5.01 |
| O=C(/N=c1\sc(-c2ccccc2)c(-c2ccccc2)n1CCc1ccccc1)c1ccccc1 | > 10 | pIC50 (FFLUC_HILL_SLOPE 3.75, FFLUC_R_SQUARED 0.66, PBLUC_HILL_SLOPE 10.4, PBLUC_R_SQUARED 0.195, read-out: LUCIFERASE INFECTION ASSAY - IC50): 5.06 |
| C=C(C)CSc1nc2cc(-c3ccc(C)cc3)sc2c(=O)n1Cc1ccccc1 | > 10 | pIC50 (FFLUC_HILL_SLOPE 3.73, FFLUC_R_SQUARED 0.533, read-out: LUCIFERASE INFECTION ASSAY - IC50): < 5.00 |
